Measurements reported in the supplement of paper PMC10307832.

Experiments:
Assay in all cases: relative viability (nuclei count vs DMSO), 5 days (fraction); higher = more cells survive
Tozasertib + Palbociclib = compound: Cc1cc(Nc2cc(N3CCN(C)CC3)nc(Sc3ccc(NC(=O)C4CC4)cc3)n2)n[nH]1 [Tozasertib] + CC(=O)c1c(C)c2cnc(Nc3ccc(N4CCNCC4)cn3)nc2n(C2CCCC2)c1=O [Palbociclib] (partner 0.5 µM)
Procedure, shortened: (§1)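 Relative viability equals treated-well nuclei counts divided by vehicle-well nuclei counts. Counts came from 4× images of lung cancer cell lines grown in 1536-well plates for 5 days after pin-tool dosing on the day after seeding. Dosing used one drug alone or a fixed anchor-drug dose plus five library-drug doses (not always all listed) in √10 steps, and values are medians of duplicate plates.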

Tozasertib + Bortezomib = compound: Cc1cc(Nc2cc(N3CCN(C)CC3)nc(Sc3ccc(NC(=O)C4CC4)cc3)n2)n[nH]1 [Tozasertib] + CC(C)C[C@H](NC(=O)[C@H](Cc1ccccc1)NC(=O)c1cnccn1)B(O)O [Bortezomib] (partner 0.002 µM)
Procedure, shortened: as §1

Tozasertib + Foretinib = compound: Cc1cc(Nc2cc(N3CCN(C)CC3)nc(Sc3ccc(NC(=O)C4CC4)cc3)n2)n[nH]1 [Tozasertib] + COc1cc2c(Oc3ccc(NC(=O)C4(C(=O)Nc5ccc(F)cc5)CC4)cc3F)ccnc2cc1OCCCN1CCOCC1 [Foretinib] (partner 0.25 µM)
Procedure, shortened: as §1

Tozasertib + Pictilisib = compound: Cc1cc(Nc2cc(N3CCN(C)CC3)nc(Sc3ccc(NC(=O)C4CC4)cc3)n2)n[nH]1 [Tozasertib] + CS(=O)(=O)N1CCN(Cc2cc3nc(-c4cccc5[nH]ncc45)nc(N4CCOCC4)c3s2)CC1 [Pictilisib] (partner 1 µM)
Procedure, shortened: as §1

Tozasertib + Phenformin = compound: Cc1cc(Nc2cc(N3CCN(C)CC3)nc(Sc3ccc(NC(=O)C4CC4)cc3)n2)n[nH]1 [Tozasertib] + N=C(N)NC(=N)NCCc1ccccc1 [Phenformin] (partner 250 µM)
Procedure, shortened: as §1

| Cell Line | relative viability (Tozasertib + Palbociclib; first compound 0.01265 µM) | relative viability (Tozasertib + Palbociclib; first compound 0.04 µM) | relative viability (Tozasertib + Palbociclib; first compound 0.1265 µM) | relative viability (Tozasertib + Bortezomib; first compound 0.004 µM) | relative viability (Tozasertib + Bortezomib; first compound 0.01265 µM) | relative viability (Tozasertib + Bortezomib; first compound 0.1265 µM) | relative viability (Tozasertib + Foretinib; first compound 0.004 µM) | relative viability (Tozasertib + Foretinib; first compound 0.01265 µM) | relative viability (Tozasertib + Foretinib; first compound 0.04 µM) | relative viability (Tozasertib + Foretinib; first compound 0.1265 µM) | relative viability (Tozasertib + Pictilisib; first compound 0.004 µM) | relative viability (Tozasertib + Pictilisib; first compound 0.01265 µM) | relative viability (Tozasertib + Pictilisib; first compound 0.04 µM) | relative viability (Tozasertib + Pictilisib; first compound 0.1265 µM) | relative viability (Tozasertib + Phenformin; first compound 0.004 µM) | relative viability (Tozasertib + Phenformin; first compound 0.01265 µM) | relative viability (Tozasertib + Phenformin; first compound 0.04 µM) | relative viability (Tozasertib + Phenformin; first compound 0.1265 µM) | relative viability (Tozasertib + Palbociclib; first compound 0.004 µM) | relative viability (Tozasertib + Bortezomib; first compound 0.04 µM) |
| --- | --- | --- | --- | --- | --- | --- | --- | --- | --- | --- | --- | --- | --- | --- | --- | --- | --- | --- | --- | --- |
| EKVX | 0.367 | 0.418 | 0.412 | 1.19 | 0.993 | 1.05 | 0.74 | 0.76 | 0.838 | 0.786 | 0.383 | 0.443 | 0.527 | 0.348 | 0.256 | 0.212 | 0.23 | 0.222 |  |  |
| NCI-H1793 | 0.312 | 0.367 | 0.295 |  |  |  |  | 0.56 | 0.596 | 0.389 | 0.396 | 0.357 | 0.351 | 0.261 | 0.33 | 0.427 | 0.414 | 0.458 | 0.307 |  |
| NCI-H2023 | 0.384 | 0.417 | 0.243 | 1.2 | 0.905 |  | 0.747 | 0.968 | 0.94 | 0.652 | 0.306 | 0.287 | 0.296 | 0.0957 | 0.393 | 0.393 | 0.407 | 0.258 | 0.409 | 1.16 |
| A549 |  |  |  |  |  |  |  | 0.823 | 0.871 | 0.251 | 0.529 | 0.463 | 0.517 | 0.0954 | 0.117 | 0.161 | 0.169 | 0.0581 |  |  |
| HCC-15 | 0.675 | 0.73 | 0.621 | 0.999 |  | 0.851 | 1.1 | 0.99 | 1.1 | 0.764 | 0.702 | 0.653 | 0.802 | 0.585 | 0.504 | 0.477 | 0.5 | 0.341 | 0.752 |  |
| LCLC-103H | 0.45 | 0.502 | 0.52 | 1.04 | 1.14 | 0.974 | 0.81 | 0.78 | 0.713 | 0.416 | 0.694 | 0.568 | 0.634 | 0.498 | 0.373 | 0.343 | 0.323 | 0.359 | 0.481 | 1.2 |
| NCI-H1563 |  |  |  | 0.873 | 0.817 | 0.861 | 0.892 | 0.919 | 0.918 | 0.92 | 0.61 | 0.641 | 0.684 | 0.53 | 0.704 | 0.668 | 0.721 | 0.573 |  | 0.956 |
| NCI-H2228 | 0.764 | 0.671 | 0.453 | 1.31 |  | 0.434 | 0.947 | 0.803 | 0.851 | 0.356 | 0.509 |  | 0.326 | 0.355 | 0.375 | 0.298 | 0.254 | 0.132 | 0.994 |  |
| NCI-H520 | 0.228 | 0.231 | 0.173 | 0.555 | 0.585 | 0.255 | 0.872 | 0.602 | 0.923 | 0.608 | 0.315 | 0.268 | 0.288 | 0.186 | 0.546 | 0.57 | 0.662 | 0.234 | 0.231 | 0.852 |
| COR-L 105 | 0.393 | 0.419 | 0.356 | 0.879 | 0.815 | 0.291 | 1.03 | 0.993 | 1 | 0.803 | 0.434 | 0.511 | 0.412 | 0.267 | 0.501 | 0.46 | 0.483 | 0.275 | 0.353 | 0.943 |
| SW 1573 | 0.355 | 0.284 | 0.151 | 1.15 | 1.07 | 0.744 | 0.839 | 0.905 | 1.02 | 0.8 | 0.541 | 0.541 | 0.546 | 0.293 | 0.35 | 0.393 | 0.361 | 0.284 | 0.455 | 1.22 |
| NCI-H358 | 0.135 | 0.168 | 0.0747 |  |  |  | 0.736 | 0.617 | 0.545 | 0.106 | 0.353 | 0.263 | 0.366 | 0.178 | 0.353 | 0.295 | 0.354 | 0.0988 | 0.14 |  |
| NCI-H2342 | 0.511 | 0.476 | 0.531 |  |  |  | 0.949 | 0.997 | 1.02 | 0.908 |  |  |  |  | 0.635 | 0.607 | 0.57 | 0.465 | 0.491 |  |
| NCI-H2170 | 0.382 | 0.391 | 0.337 |  |  |  | 0.985 | 0.591 |  | 0.907 | 0.3 | 0.327 | 0.295 | 0.276 | 0.33 | 0.364 | 0.436 | 0.366 | 0.402 |  |
| NCI-H1944 | 0.308 | 0.332 | 0.273 |  |  |  | 0.876 | 0.753 | 0.72 | 0.459 | 0.36 | 0.339 | 0.331 | 0.275 | 0.203 | 0.211 | 0.211 | 0.167 | 0.311 |  |
| SK-MES-1 | 0.32 | 0.364 | 0.38 |  |  |  | 0.934 | 0.814 | 0.884 | 1.03 | 0.401 | 0.302 | 0.35 | 0.326 | 0.691 | 0.642 | 0.71 | 0.696 | 0.317 |  |
| NCI-H1792 | 0.594 | 0.758 | 0.61 | 0.771 | 0.88 | 0.96 |  |  |  |  | 0.297 | 0.203 | 0.241 | 0.167 | 0.325 |  | 0.423 | 0.209 | 0.731 | 1.1 |
| NCI-H596 |  |  |  | 1.06 | 1.1 | 0.796 | 0.827 | 0.916 | 0.864 | 0.766 | 0.399 | 0.395 | 0.395 | 0.332 |  | 0.808 | 0.968 | 0.834 |  | 1.06 |
